Measurements taken from US11753408B2, “Compounds and method for blocking transmission of malarial parasite” (The United States of America, as represented by the …, priority 2016, dated 2023).

Experiments:
PAMPA permeability = format: in vitro ADME
[1] = Microsomal stability (rat); format: in vitro ADME; details: rat microsomes
[2] = tested on: Asexual parasites of P. falciparum strain 3D7; test: In vitro drug activity on asexual parasites (SYBR Green assay); format: cell-based, Plasmodium falciparum
Procedure: Cell culture. Asexual parasites of P. falciparum strain 3D7 were cultured as described previously [Trager W, et al., Journal of Parasitology 2005, 91: 484-486], Stage III-V gametocytes were selected and enriched with 3-day treatment with 50 mM N-acetylglucosamine (NAG) and the following Percoll density gradient centrifugation after gametocyte production [Tanaka T Q, et al., Molecular and Biochemical Parasitology, 2011, 111: 160-163], Gametocytes of HB3 and Dd2 strains were produced and then set up for assay in a similar process. HepG2 cells (ATCC, cat. no. 77400) were cultured in 175-cm^2 tissue culture flasks with 30 ml growth medium at 37° C. in a 5% CO2 humidified atmosphere. Growth medium was made with Dulbecco's Modified Eagle Medium with 10% fetal bovine serum (FBS). Growth medium was replaced every other day and cells were passed at 75% confluence.
Asexual parasites of P. falciparum strain 3D7 were cultured as described previously (Trager, W. et al., J. Parasitol. 2005, 91(3): 484-486). Drug activity on asexual stage parasites was tested using a SYBR Green assay as described previously (Eastman, R. T. et al., Antimicrob. Agents Chemother. 2013, 57(1): 425-435; Smilkstein, M. et al., Antimicrob. Agents Chemother. 2004, 48(5): 1803-1806). Briefly, parasites were diluted to 0.5% parasitemia in complete culture medium with 2% hematocrit and drugs diluted in DMSO (≤0.5%) and were loaded into a 96-well plate (200 μl/well). No drug and RBC alone wells were included as positive and background controls, respectively, and each testing condition was examined in duplicated. After 72 h incubation under the standard culture condition and a freeze-thaw lysis step at −80° C. and room temperature, 100 μl/well of lysis buffer containing SYBR Green I was added to the parasite culture and incubated for 30 min at room temperature. The fluorescence of each well was measured at 520 nm following excitation at 490 nm using a FLUOstar Optima™ microplate reader (BMG Labtech).

Solubility at pH 7.4 = format: physicochemical
mTOR = mTOR (Homo sapiens, UniProt P42345); test: mTOR activity (no method described); format: biochemical

Structure (SMILES)	PAMPA Permeability (PAMPA permeability)	Microsomal Stability (rat) T1/2 [1]	EC50 [2]	Sol @ pH 7.4 (Solubility at pH 7.4)	mTOR (mTOR)
O=C(NCCN1CCCC1)c1ccc(-n2c(=O)ccc3cnc4ccc(-c5ccc(Cl)cc5)cc4c32)cc1 [Compound 220]	127 ×10⁻⁶ cm/s	12.6 min	156 nM	9.4 ug/mL	4.247 µM
O=C(O)c1cc(Cl)ccc1-c1ccc2ncc3ccc(=O)n(-c4ccc(C(=O)N5CCOCC5)cc4)c3c2c1 [Compound 135]	3 ×10⁻⁶ cm/s	>30.0 min	77800 nM	>80.0 ug/mL	inactive
O=C(c1ccc(-n2c(=O)ccc3cnc4ccc(-c5cccc(CCN6CCCC6)c5)cc4c32)cc1)N1CCOCC1 [Compound 211]	227 ×10⁻⁶ cm/s	>30 min	3880 nM	>83 ug/mL	43.09 µM
CN(C)CC#Cc1ccc2ncc3ccc(=O)n(-c4ccc(C(=O)N5CCOCC5)cc4)c3c2c1 [Compound 218]	100 ×10⁻⁶ cm/s	>30 min	1680 nM	>69 ug/mL	16.25 µM
O=C(NC1CN(CCO)C1)c1ccc(-n2c(=O)ccc3cnc4ccc(-c5ccc(Cl)cc5)cc4c32)cc1 [Compound 94]	1.9 ×10⁻⁶ cm/s	>30 min	24.9 nM	13.6 ug/mL	4.188 µM
O=C(c1ccc(-n2c(=O)ccc3cnc4ccc(-c5ccc(OC6CCNCC6)cc5)cc4c32)cc1)N1CCOCC1 [Compound 219]	3.3 ×10⁻⁶ cm/s	>30 min	371 nM	6.3 ug/mL	3.288 µM
Cc1cc(C(=O)NC2CCN(CCO)CC2)ccc1-n1c(=O)ccc2cnc3ccc(-c4ccc(Cl)cc4)cc3c21 [Compound 279]	49.1 ×10⁻⁶ cm/s	15.8 min	50.5 nM	>84 ug/mL	1.317 µM
CCN(CC)CCNC(=O)c1ccc(-n2c(=O)ccc3cnc4ccc(-c5ccc(Cl)cc5)cc4c32)c(OC)c1 [Compound 249]	1070 ×10⁻⁶ cm/s	7.9 min	576 nM	>82 ug/mL	14.76 µM
O=C(O)c1ccc(-n2c(=O)ccc3c(O)nc4ccc(-c5ccc(Cl)cc5)cc4c32)cc1 [Compound 237]	3.3 ×10⁻⁶ cm/s	>30 min	39500 nM	>65 ug/mL	100 µM
O=C(NCCCN1CCCC1)c1ccc(-n2c(=O)ccc3cnc4ccc(-c5ccc(Cl)cc5)cc4c32)cc1 [Compound 206]	428 ×10⁻⁶ cm/s	7.1 min	48.9 nM	44.1 ug/mL	19.64 µM
COc1cc(C(=O)N2CCOCC2)ccc1-n1c(=O)ccc2cnc3ccc(-c4ccc(Cl)cc4)cc3c21 [Compound 199]	1440 ×10⁻⁶ cm/s	5.6 min	109 nM	1.4 ug/mL	16.51 µM
O=C(NCC1CCOCC1)c1ccc(-n2c(=O)ccc3cnc4ccc(-c5ccc(Cl)cc5)cc4c32)cc1 [Compound 288]	18.8 ×10⁻⁶ cm/s	1.2 min	284 nM	<1 ug/mL	1.258 µM
O=C(NC1CC1)c1ccc(-n2c(=O)ccc3cnc4ccc(-c5ccc(Cl)c(O)c5)cc4c32)cc1 [Compound 204]	< 1 ×10⁻⁶ cm/s	>30 min	14.3 nM	<1 ug/mL	0.2571 µM
NC1(c2ccc(-c3ccc4ncc5ccc(=O)n(-c6ccc(C(=O)NC7CC7)cc6)c5c4c3)cc2)CC1 [Compound 97]	35.8 ×10⁻⁶ cm/s	>30 min	101 nM	7.1 ug/mL	1.4 µM
CN(C)CCc1cccc(-c2ccc3ncc4ccc(=O)n(-c5ccc(C(=O)N6CCOCC6)cc5)c4c3c2)c1 [Compound 212]	189 ×10⁻⁶ cm/s	>30 min	3890 nM	>79 ug/mL	15.8 µM
O=C(c1ccc(-n2c(=O)ccc3cnc4ccc(-c5ccc(CCN6CCCC6)cc5)cc4c32)cc1)N1CCOCC1 [Compound 217]	130 ×10⁻⁶ cm/s	>30 min	531 nM	>83 ug/mL	17.83 µM
CN(C)CCN1CCN(C(=O)c2ccc(-n3c(=O)ccc4cnc5ccc(-c6ccc(Cl)cc6)cc5c43)cc2)CC1 [Compound 95]	674 ×10⁻⁶ cm/s	>30 min	15.7 nM	54.7 ug/mL	1.731 µM
CC(C)c1ccc(-c2ccc3ncc4ccc(=O)n(-c5ccc(C(=O)N6CCOCC6)cc5)c4c3c2)cc1 [Compound 201]	13.8 ×10⁻⁶ cm/s	12.6 min	1620 nM	<1 ug/mL	17.28 µM
Cc1cc(C(=O)NCCN2CCC2)ccc1-n1c(=O)ccc2cnc3ccc(-c4ccc(Cl)cc4)cc3c21 [Compound 293]	241 ×10⁻⁶ cm/s	22.9 min	146 nM	0 ug/mL	6.103 µM
COc1cc(C(=O)NC2CC2)ccc1-n1c(=O)ccc2cnc3ccc(-c4ccc(F)c(O)c4)cc3c21 [Compound 272]	626 ×10⁻⁶ cm/s	21.9 min	52.1 nM	11.8 ug/mL	5.227 µM
O=C(NC1CC1)c1ccc(-n2c(=O)ccc3cnc4ccc(-c5ccc(F)cc5)cc4c32)cc1 [Compound 91]	54.2 ×10⁻⁶ cm/s	>30 min	33 nM	<1 ug/mL	4.415 µM
O=C(NC1CCNC1)c1ccc(-n2c(=O)ccc3cnc4ccc(-c5ccc(Cl)cc5)cc4c32)cc1 (stereo not shown) [Compound 96]	7.8 ×10⁻⁶ cm/s	>30 min	37.3 nM	11.4 ug/mL	1.291 µM
Cc1cc(C(=O)NCCN2CCN(C)CC2)ccc1-n1c(=O)ccc2cnc3ccc(-c4ccc(Cl)cc4)cc3c21 [Compound 277]	354 ×10⁻⁶ cm/s	3.8 min	82.5 nM	19.9 ug/mL	3.631 µM
CC(C)NC(=O)c1ccc(-n2c(=O)ccc3cnc4ccc(-c5ccc(Cl)cc5)cc4c32)cc1 [Compound 213]	< 1 ×10⁻⁶ cm/s	18.9 min	130 nM	<1 ug/mL	1.299 µM
CN(C)C(=O)c1ccc(-n2c(=O)ccc3c[n+]([O-])c4ccc(-c5ccc(Cl)cc5)cc4c32)cc1 [Compound 208]	248 ×10⁻⁶ cm/s	13.2 min	65.9 nM	35.5 ug/mL	21.75 µM
Cc1cc(C(=O)NCCN(C)C)ccc1-n1c(=O)ccc2cnc3ccc(-c4ccc(Cl)cc4)cc3c21 [Compound 274]	1010 ×10⁻⁶ cm/s	21.4 min	40.6 nM	63.8 ug/mL	4.9 µM
Cc1cc(C(=O)NCCCN2CCN(C)CC2)ccc1-n1c(=O)ccc2cnc3ccc(-c4ccc(Cl)cc4)cc3c21 [Compound 282]	598 ×10⁻⁶ cm/s	4.1 min	71.4 nM	>86 ug/mL	4.536 µM
Cc1cc(C(=O)NCCN2CCCC2)ccc1-n1c(=O)ccc2cnc3ccc(-c4ccc(Cl)cc4)cc3c21 [Compound 295]	639 ×10⁻⁶ cm/s	10.6 min	162 nM	0 ug/mL	23.74 µM
COc1cc(C(=O)NC2CC2)ccc1-n1c(=O)ccc2cnc3ccc(-c4ccc(C5(N)CC5)cc4)cc3c21 [Compound 205]	456 ×10⁻⁶ cm/s		177 nM	2.2 ug/mL	1.061 µM
CC(C)(C)c1ccc(-c2ccc3ncc4ccc(=O)n(-c5ccc(C(=O)N6CCOCC6)cc5)c4c3c2)cc1 [Compound 196]	85.9 ×10⁻⁶ cm/s	18 min		<1 ug/mL	100 µM
